{"source": "patent US20100204313A1", "about": "“Modulation of nerve pain activity by resiniferatoxin and uses thereof” (priority 2007, published 2010)", "key": {"TRPV1 [1]": {"biological_target": "T1, TRPV1 (Rattus norvegicus, UniProt O35433)", "T1 sequence (O35433 whole entry)": "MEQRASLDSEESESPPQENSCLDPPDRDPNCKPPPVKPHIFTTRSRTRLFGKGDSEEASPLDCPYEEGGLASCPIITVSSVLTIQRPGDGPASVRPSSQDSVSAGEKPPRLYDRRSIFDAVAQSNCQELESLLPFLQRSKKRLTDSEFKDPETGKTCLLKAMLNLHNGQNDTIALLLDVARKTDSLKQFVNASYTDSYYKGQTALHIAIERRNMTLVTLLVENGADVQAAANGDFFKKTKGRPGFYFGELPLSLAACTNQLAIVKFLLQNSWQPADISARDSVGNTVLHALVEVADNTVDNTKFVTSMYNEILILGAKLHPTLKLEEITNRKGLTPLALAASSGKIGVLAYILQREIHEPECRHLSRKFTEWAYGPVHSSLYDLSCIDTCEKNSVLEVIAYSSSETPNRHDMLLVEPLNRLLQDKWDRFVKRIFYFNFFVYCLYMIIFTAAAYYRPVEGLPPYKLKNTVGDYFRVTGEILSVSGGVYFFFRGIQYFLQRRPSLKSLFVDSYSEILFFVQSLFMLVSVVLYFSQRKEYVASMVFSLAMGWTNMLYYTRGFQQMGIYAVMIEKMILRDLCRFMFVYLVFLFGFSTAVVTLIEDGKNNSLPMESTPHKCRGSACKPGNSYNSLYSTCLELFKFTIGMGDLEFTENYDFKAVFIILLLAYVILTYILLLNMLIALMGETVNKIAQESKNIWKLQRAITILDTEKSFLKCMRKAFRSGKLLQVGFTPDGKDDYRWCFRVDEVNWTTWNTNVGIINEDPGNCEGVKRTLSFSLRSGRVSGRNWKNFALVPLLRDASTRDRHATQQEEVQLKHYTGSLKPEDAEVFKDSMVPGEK", "design": "host or cells: living rats (sensory neurons), TNBS chronic pancreatitis model", "conditions": "systemic administration, chronic pancreatitis; cited from earlier work"}, "[2]": {"test_system": "transient receptor potential vanilloid type-1 on gastric branches of dichotomous gastropancreatic nerves", "assay": "Pancreatic edema (water content) after intragastric infusion with pyloric ligation", "format": "in vivo", "conditions": "intragastric infusion of 1.2 ml of 1.6 μM after pyloric ligation; pancreas harvested 30 minutes later", "procedure": "Capsaicin was infused into the stomach after pyloric ligation and 30 minutes later the pancreas was harvested and water content was measured.\nNext, the functional correlate of this anatomical convergence was determined. It was hypothesized that intragastric capsaicin will activate transient receptor potential vanilloid type-1 on gastric branches of dichotomous gastropancreatic nerves and via an axonal reflex result in edema of the pancreas. After pyloric ligation, intragastric infusion of 1.2 ml of 1.6 μM capsaicin was followed 30 minutes later by harvesting of the pancreas and measurement of water content."}, "nociceptors": {"test_system": "nociceptors", "conditions": "functional denervation of the pancreas; cited from earlier work"}, "TRPV1 [3]": {"biological_target": "T2, TRPV1 (Mus musculus, UniProt Q704Y3)", "T2 construct": "capsazepine, a selective TRPV1 antagonist, can reduce cerulein-induced pancreatitis in mice; host or cells: living mice, cerulein-induced pancreatitis", "T2 sequence (Q704Y3 whole entry)": "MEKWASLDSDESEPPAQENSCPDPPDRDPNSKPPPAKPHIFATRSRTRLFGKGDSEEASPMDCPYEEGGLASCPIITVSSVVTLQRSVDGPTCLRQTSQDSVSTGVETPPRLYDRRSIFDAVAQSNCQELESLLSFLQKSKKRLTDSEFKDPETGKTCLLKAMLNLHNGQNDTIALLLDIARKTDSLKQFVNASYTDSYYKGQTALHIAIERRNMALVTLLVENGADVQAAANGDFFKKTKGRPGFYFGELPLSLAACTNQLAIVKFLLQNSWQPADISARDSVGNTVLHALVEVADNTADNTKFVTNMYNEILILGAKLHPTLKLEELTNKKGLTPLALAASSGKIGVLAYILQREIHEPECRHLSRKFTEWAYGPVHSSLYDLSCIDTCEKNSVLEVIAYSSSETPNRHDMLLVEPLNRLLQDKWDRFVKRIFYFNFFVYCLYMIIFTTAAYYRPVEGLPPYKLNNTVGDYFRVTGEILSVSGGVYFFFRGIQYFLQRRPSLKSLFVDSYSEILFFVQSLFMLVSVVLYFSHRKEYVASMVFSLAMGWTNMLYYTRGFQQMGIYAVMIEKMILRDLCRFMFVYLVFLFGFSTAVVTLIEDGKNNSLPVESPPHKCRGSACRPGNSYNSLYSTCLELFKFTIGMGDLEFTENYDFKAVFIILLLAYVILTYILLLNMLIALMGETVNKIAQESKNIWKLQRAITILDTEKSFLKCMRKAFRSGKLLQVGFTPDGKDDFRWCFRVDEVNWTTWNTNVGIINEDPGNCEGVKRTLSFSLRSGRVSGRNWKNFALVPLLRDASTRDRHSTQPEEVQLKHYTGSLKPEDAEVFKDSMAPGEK", "conditions": "mice, cited from earlier work"}, "gastropancreatic nerves [4]": {"test_system": "gastropancreatic nerves", "procedure": "Capsaicin dose was 0.05 mg/0.3 ml in 40% ethanol for each group (n=8 rats/group).\nTransient receptor potential vanilloid type-1 activation on the gastric side of gastropancreatic nerves can trigger axonal reflexes. Based on the known interaction between alcohol and transient receptor potential vanilloid type-1, it is possible that intragastric ethanol might also stimulate these nerves. […] At the same time, there was an intra-pancreatic canula in place and recording electrodes positioned around nerve fibers in the greater splanchnic nerve that were responsive to mechanical stimulation of the pancreas. Five minutes after intragastric ethanol, capsaicin was infused into the pancreatic duct."}, "nocifensive behaviors": {"test_system": "nocifensive behaviors", "conditions": "20% ethanol 1.6 gm/kg 3 times a day for 3 days; current 2, 5 and 10 mA; vs saline TNBS rats; P<0.001", "description": "Increasing amounts of electrical current were applied to the pancreas through a previously implanted electrode and the total number of nocifensive behaviors was recorded.\nControl TNBS rats received an equal volume of normal saline. The next day the rats were tested for their behavioral response for pain by administering successive application of electrical current at 2, 5 and 10 mA for 5 minutes through a pair of electrodes implanted in the pancreas at the time of TNBS administration."}, "TRPV1 [5]": {"biological_target": "T1, TRPV1", "conditions": "in vitro, cited from earlier work"}, "TRPV1 [6]": {"test_system": "TRPV1", "conditions": "various tissues, capsazepine-sensitive; cited from earlier work"}, "guinea pig bronchi": {"test_system": "guinea pig bronchi", "conditions": "ex-vivo; sensitive to TRPV1 and tachykinin receptor blockade; cited from earlier work"}, "guinea pig airways": {"test_system": "guinea pig airways", "conditions": "intravenous 221 mg/kg or intragastric 790 mg/kg; capsazepine-sensitive; cited from earlier work"}, "gastropancreatic nerves [7]": {"test_system": "gastropancreatic nerves", "assay": "Afferent nerve signaling to colorectal distention after intragastric resiniferatoxin", "format": "in vivo", "conditions": "rat stomach, 4 hours after intragastric resiniferatoxin vs baseline", "procedure": "The top row represents the baseline response. Note the near complete absence of responses 4 hours after intragastric resiniferatoxin.\nResiniferatoxin is the principal active ingredient in the classic drug Euphorbium, the air-dried latex (resin) of the cactus-like plant Euphorbia resinifera. It is an ultra-potent analog of capsaicin and local application causes desensitization without prior excitation of afferent nerves that lasts for several weeks (Neubert et al, 2003; Kissin et al, 2002; Xu et al, 1997; Craft et al, 1995; Avelino et al, 1999; Acs et al, 1997; Abdel-Salam et al, 1994)."}, "gastric emptying": {"test_system": "gastric emptying", "assay": "Gastric emptying of solid foods after local instillation", "format": "in vivo, rat", "conditions": "100 nM/kg, vs control", "procedure": "These experiments were done in male rats. Resiniferatoxin was instilled at 100 nM/kg body weight, 0.6 microgm/ml, into either the stomach or jejunum. Controls received saline in the stomach. Five weeks later gastric emptying of solid foods was measured. […] The combination of faster emptying and anti-nauseant effect makes it a very appropriate treatment for gastroparesis."}, "afferent nerves": {"test_system": "afferent nerves", "conditions": "desensitization of afferent nerves; cited from earlier work"}}, "note": "“Also recorded” adds a separate entry of the source.", "data": [{"compound": "COc1cccc(NC(=O)/C=C/c2ccc(Cl)cc2)c1", "note": "[SB-366791]", "values": [{"measurement": "pancreatic pain behavioral response", "setting": "TRPV1 [1]", "value": "markedly reduced"}]}, {"compound": "COc1cc(CNC(=O)CCCC/C=C/C(C)C)ccc1O", "note": "[capsaicin]", "values": [{"measurement": "pancreatic edema (water content)", "setting": "[2]", "value": "causes pancreatic edema"}, {"measurement": "acute experimental pancreatitis", "setting": "nociceptors", "value": "significant attenuation"}]}, {"compound": "Oc1cc2c(cc1O)CN(C(=S)NCCc1ccc(Cl)cc1)CCC2", "note": "[capsazepine]", "values": [{"measurement": "NK1R endocytosis in acinar cells (surrogate marker for SP release)", "setting": "TRPV1 [3]; cerulein-induced pancreatitis", "value": "reduction"}, {"measurement": "cerulein induced pancreatitis", "setting": "TRPV1 [3]", "value": "attenuate"}]}, {"compound": "CCO", "note": "[ethanol]", "values": [{"measurement": "multi-unit spike potentials after intra-pancreatic capsaicin", "setting": "gastropancreatic nerves [4]; intragastric ethanol five minutes before capsaicin into pancreatic duct, vs intragastric saline, P<0.05, n=8 rats/group", "value": "significant increase"}, {"measurement": "gastropancreatic nerve activity, ethanol by itself", "setting": "gastropancreatic nerves [4]; intragastric via orogastric lavage after pyloric ligation, before capsaicin", "value": "did not increase"}, {"measurement": "number of nocifensive behaviors", "setting": "nocifensive behaviors", "value": "increased the number of nocifensive behaviors significantly"}, {"measurement": "TRPV1 stimulation, capsazepine-sensitive calcium response", "setting": "TRPV1 [5]; trigeminal and dorsal root ganglia neurons", "value": "directly stimulate"}, {"measurement": "sensitization of dorsal root ganglia neurons to the effects of capsaicin", "setting": "TRPV1 [5]", "value": "sensitize"}, {"measurement": "release of substance P", "setting": "TRPV1 [6]", "value": "induce the release"}, {"measurement": "contractions of bronchi", "setting": "guinea pig bronchi", "value": "caused contractions"}, {"measurement": "broncho-constriction", "setting": "guinea pig airways", "value": "caused broncho-constriction"}, {"measurement": "plasma extravasation in the airways", "setting": "guinea pig airways", "value": "increased plasma extravasation"}]}, {"compound": "C=C(C)[C@]12C[C@@H](C)[C@@]34O[C@](Cc5ccccc5)(O[C@@H]1[C@@H]3C=C(COC(=O)Cc1ccc(O)c(OC)c1)C[C@]1(O)C(=O)C(C)=C[C@@H]41)O2", "note": "[resiniferatoxin]", "values": [{"measurement": "afferent nerve signaling to colorectal distention", "setting": "gastropancreatic nerves [7]", "value": "near complete attenuation; also recorded: nearly complete attenuation"}, {"measurement": "percentage of gastric emptying after 3 hours", "setting": "gastric emptying; instilled into the jejunum five weeks prior, P=0.04, n=4", "value": "significant increase"}, {"measurement": "percentage of gastric emptying after 3 hours", "setting": "gastric emptying; instilled into the stomach five weeks prior, P=0.01, n=4 rats", "value": "significant increase"}, {"measurement": "potency relative to capsaicin", "setting": "afferent nerves", "value": 200, "unit": "times"}, {"measurement": "acute experimental pancreatitis", "setting": "nociceptors", "value": "significant attenuation"}]}]}
